Values quoted from earlier work as cited in patent US6576617B2, “Direct action anti-mycotic” (International Fiber Corporation, priority 1999, dated 2003).

Tests used:
[1] = tested on: mold, yeast, and fungal growth; conditions: agar medium
[2] = tested on: mold, yeast, or fungus growth; conditions: non-liquid foods for human consumption; conventional natamycin

## C[C@@H]1C/C=C/C=C/C=C/C=C/[C@H](O[C@@H]2O[C@H](C)[C@@H](O)[C@H](N)[C@@H]2O)C[C@@H]2O[C@](O)(C[C@@H](O)C[C@H]3O[C@@H]3/C=C/C(=O)O1)C[C@H](O)[C@H]2C(=O)O [natamycin]
[1]
  concentration with anti-mycotic activity: ≥ 1 ppm
[2]
  concentration necessary for effective mold, yeast, and fungus control: greater than 5 ppm
